From ChEMBL document CHEMBL1142424, “Octanorcucurbitane and cucurbitane triterpenoids from the tubers of Hemsleya endecaphylla with HIV-1 inhibitory activity” (J Nat Prod, 2008) come the findings set out here.

≈ marks a conversion by molar mass, not a printed value.

Data set [1] is described as follows: Cytotoxicity against human C8166 cells by MTT method. The format is cell-based. Background: Tetrazolium dyes change colour on reduction, which living cells bring about.
The nature of data set [2]: Selectivity index, ratio of CC50 for human C8166 cells to EC50 for HIV1. The data set is classed as functional.
For data set [3], the system named is Human immunodeficiency virus 1. Kind of data set: Antiviral activity against HIV1 in C8166 cells after 72 hrs. As to conditions: Human immunodeficiency virus 1, C8166, 72 h. The format is functional, organism-based.

By CC50 is commonly meant the concentration giving 50% cytotoxicity. Lower therefore signals harm at low concentration. The EC50 is the midpoint of the concentration-response curve. Read a high EC50 as lower potency in that assay. For the compound `CC(C)(O)/C=C/C[C@@](C)(O)[C@H]1[C@H](O)C[C@@]2(C)[C@@H]3CC=C4[C@@H](C[C@H](O)C(=O)C4(C)C)[C@]3(C)C(=O)C[C@]12C`, it took 121 µg/mL (≈ 241 µM) to reach half-maximal cytotoxicity in data set [1] (CC50). Besides, in data set [2], the “Ratio CC50/EC50” value stood at 7.7. This compound also gave an EC50 in data set [3] of 15.8 µg/mL (≈ 31.4 µM).

In the case of `CC(=O)OC(C)(C)CCC(=O)[C@](C)(O)[C@H]1[C@H](O)C[C@@]2(C)[C@@H]3CC=C4[C@@H](C=C(O)C(=O)C4(C)C)[C@]3(C)C(=O)C[C@]12C`, in data set [1], the CC50 was 21.6 µg/mL (≈ 38.7 µM). Further, the “Ratio CC50/EC50” value in data set [2] was 9.2. In data set [3], this compound had an EC50 of 2.4 µg/mL (≈ 4.3 µM).

Regarding `CC(C)(O)CCC(=O)[C@@](C)(O)[C@H]1[C@H](O)C[C@@]2(C)[C@@H]3CC=C4[C@@H](C[C@H](O)C(=O)C4(C)C)[C@]3(C)C(=O)C[C@]12C`, the midpoint of cytotoxicity in data set [1], the CC50, lay at 6.5 µg/mL (≈ 12.5 µM). The “Ratio CC50/EC50” value in data set [2] was determined as 50. In data set [3], the concentration for a half-maximal effect (EC50) is 0.13 µg/mL (≈ 0.251 µM).

For `CC(=O)OC(C)(C)CCC(=O)[C@](C)(O)[C@H]1[C@H](O)C[C@@]2(C)[C@@H]3CC=C4[C@@H](C[C@H](O)C(=O)C4(C)C)[C@]3(C)C(=O)C[C@]12C` [23,24-DIHYDROCUCURBITACIN B], the CC50 in data set [1] was determined as 25.5 µg/mL (≈ 45.5 µM). Further, in data set [2], the “Ratio CC50/EC50” value was 6.1. Further, in data set [3], it took 4.2 µg/mL (≈ 7.49 µM) to reach a half-maximal effect (EC50).

`CC(=O)OC(C)(C)/C=C/C(=O)[C@](C)(O)[C@H]1[C@H](O)C[C@@]2(C)[C@@H]3CC=C4[C@@H](C[C@H](O)C(=O)C4(C)C)[C@]3(C)C(=O)C[C@]12C` [CUCURBITACIN B] showed a CC50 in data set [1] of 1.5 µg/mL (≈ 2.68 µM).

With `CC(=O)OC(C)(C)/C=C/C(=O)[C@](C)(O)[C@H]1[C@H](O)C[C@@]2(C)[C@@H]3CC=C4[C@H](C[C@H](O)C(=O)C4(C)C)[C@]3(C)C(=O)C[C@]12C` [CUCURBITACIN B], in data set [2], the “Ratio CC50/EC50” value came out at 16.7. The compound also registered an EC50 in data set [3] of 0.09 µg/mL (≈ 0.161 µM).

Consider `CC(C)(O)/C=C/C(=O)[C@](C)(O)[C@H]1[C@H](O)C[C@@]2(C)[C@@H]3CC=C4[C@@H](C=C(O)C(=O)C4(C)C)[C@]3(C)C(=O)C[C@]12C` [CUCURBITACIN I], for which the CC50 in data set [1] was determined as 14.4 µg/mL (≈ 28 µM). The “Ratio CC50/EC50” value in data set [2] was determined as 20.6. Also, it took 0.7 µg/mL (≈ 1.36 µM) to reach a half-maximal effect in data set [3] (EC50).

Regarding `CC1(C)C(=O)[C@@H](O)C[C@@H]2C1=CC[C@@H]1[C@@]2(C)C(=O)C[C@]2(C)CC(=O)C[C@@]12C` [ENDECAPHYLLACIN A], the CC50 in data set [1] was above 200 µg/mL. Further, the “Ratio CC50/EC50” value in data set [2] is reported as above 6.3. Further, the EC50 in data set [3] came to 31.6 µg/mL (≈ 88.2 µM).

The compound `CC1(C)C(=O)C(O)=C[C@@H]2C1=CC[C@@H]1[C@@]2(C)C(=O)C[C@]2(C)CC(=O)C[C@@]12C` [ENDECAPHYLLACIN B] returned a CC50 in data set [1] of 62 µg/mL (≈ 174 µM). For the same compound, in data set [2], the “Ratio CC50/EC50” value is recorded as 5. Further, the EC50 in data set [3] turned out to be 12 µg/mL (≈ 33.7 µM).

Regarding `Cc1cn([C@H]2C[C@H](N=[N+]=[N-])[C@@H](CO)O2)c(=O)[nH]c1=O` [ZIDOVUDINE], in data set [1], the CC50 is above 200 µg/mL. Further, the “Ratio CC50/EC50” value in data set [2] was above 50000. Further, in data set [3], the EC50 came to 0.0034 µg/mL (≈ 0.0127 µM).
